Test results as given in patent publication US11912723B2, “KRAS modulators and uses thereof” (Quanta Therapeutics, Inc., priority 2022, dated 2024).

Key:
Format in all cases: binding
KRAS G12D/RAF1 = target: T1, KRAS G12D/RAF1 (Homo sapiens, UniProt P01116, G12D); assay: Protein-protein interaction (PPI) HTRF assay KRAS G12D/RAF1; settings: KRAS G12D/RAF1, GppNHp-loaded KRAS; 30 minutes pre-incubation
T1 construct: KRAS (1-169) proteins were expressed in E. coli at 18° C; His6-MBP (N, cleaved yes); made in house; host or cells: E. coli
T1 sequence (P01116 1-169 isoform P01116-2 G12D): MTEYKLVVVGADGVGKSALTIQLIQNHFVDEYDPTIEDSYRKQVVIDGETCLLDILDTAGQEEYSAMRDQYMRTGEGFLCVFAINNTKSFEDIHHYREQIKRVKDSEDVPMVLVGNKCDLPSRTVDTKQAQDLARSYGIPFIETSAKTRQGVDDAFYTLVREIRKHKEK
Summary of the method: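 IC50 values come from the 665/615 HTRF ratio, scaled between no-compound (0% inhibition) and untagged RAF1 (100%). GppNHp-exchanged, biotinylated RAS (1-169) solution at 16 nM met compound for 30 min at room temperature. Then 16 nM His-tagged RAF1 (52-131) donor solution was added and incubated 1 h.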

KRAS G12V/RAF1 = target: T2, KRAS G12V/RAF1 (Homo sapiens, UniProt P01116, G12V); assay: Protein-protein interaction (PPI) HTRF assay KRAS G12V/RAF1; settings: KRASG12V/RAF1
T2 construct: KRAS (1-169) proteins were expressed in E. coli at 18° C; His6-MBP (N, cleaved yes); made in house; host or cells: E. coli
T2 sequence (P01116 1-169 isoform P01116-2 G12V): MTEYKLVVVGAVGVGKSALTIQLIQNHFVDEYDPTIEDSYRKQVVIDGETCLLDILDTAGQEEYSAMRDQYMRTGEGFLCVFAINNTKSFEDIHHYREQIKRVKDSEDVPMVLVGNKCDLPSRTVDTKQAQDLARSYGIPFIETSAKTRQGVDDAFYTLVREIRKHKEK
Protocol: (§1) Biotinylated KRAS wt and KRAS G12DNV proteins were expressed and purified in conditions similar to those previously reported (Tran, et al., 2021) (Zhang, et al., 2020). Briefly, KRAS (1-169) proteins were expressed in E. coli at 18° C. with an upstream TEV cleavage site (ENLFYQS) followed an Avi tag sequence ([…]). KIRAS expression constructs contained both a His6 and maltose-binding protein (MBP) tags at the N-terminus for Ni-NTA column purification prior to overnight TEV cleavage and MBP column purification. The avi-tagged NRAS expression construct contained both a His6 tag and SUMO cleavage sige at the N-terminus for Ni-NTA column purification followed by His-ULP1 digestion overnight. All avi-tagged RAS proteins were dialyzed into buffer containing ATP, biotin, and BirA followed by purification over a second Ni-NTA column and then run over a size exclusion HiLoad™ 26/600 Superdex™ column in 20 mM HEPES, pH 7.5, 300 mM NaCl, 5 mM MgCl2, and 1 mM TCEP. Fractions containing the protein of interest were pooled, concentrated, and confirmed by intact mass spectrometry. To prepare ‘GTP’ loaded KRAS and NRAS, biotinylated KRAS or NRAS was nucleotide exchanged from GDP-bound protein to GppNHp-bound (Jena Biosciences, NU-401-50) protein in the presence of alkaline phosphatase and excess GppNHp as previously described and the resulting nucleotide content was confirmed by HPLC reverse phase analytical chromatography (Donohue, et al., 2019) (Tran, et al., 2021).
(§2) His-tagged RAF1 (52-131) was similarly expressed in E. coli at 18° C. overnight with an upstream TEV cleavage site. His-tagged RAF1 expression construct contained both a His6 and MBP tags at the N-terminus for Ni-NTA column purification followed by MBP-tagged TEV digestion overnight. RAF1 protein samples were further purified over a MBP column followed by a Ni-NTA column and a second MBP column. The fractions containing the protein of interest were pooled, concentrated, and further purified over a HiLoad™ 16/600 Superdex™ 75 pg size exclusion column into 20 mM HEPES, pH8.0, 200 mM NaCl, 5 mM TCEP.
(§3) When RAS proteins are in the active GTP-bound conformation, they bind the effector protein RAF1 at the N-terminus Ras-binding domain (RBD, residues 52-131) (Tran, et al., 2021). Homogenous time resolved fluorescence (HTRF) was used to monitor the interaction between wt or mutant KRAS and RAF1 or wt NRAS and RAFT. Compounds were assayed in the presence of KRAS G12D/V and RAF1 versus wt KRAS to assess activity against mutant and w.t. KRAS. Similarly, compounds were then assayed in the presence of w.t. NRAS and RAF1 to assess RAS isoform selectivity. In all assay formats, His-tagged RAF1 protein was incubated with the HTRF donor, anti-6His Tb Cryptate gold (Cisbio 61DB10RDF), and biotinylated RAS proteins were incubated with the HTRF acceptor, streptavidin-d2 (CisBio 610SADLA). The intensity of the fluorescence signal emitted is proportional to binding between the two proteins. The donor solution was prepared by mixing 16 nM His-tagged RAF1 in protein dilution buffer with 1:100 anti-6His Tb cryptate in PPI-Terbium detection buffer. 16 nM biotinylated RAS protein was diluted into protein dilution buffer (50 mM Tris-HCl pH 7.5, 150 mM NaCl, 0.1 mM MgCl2, 1 mM TCEP, 0.005% Tween20) and mixed with 1:2000 Streptavidin-d2 diluted in PPI-Terbium detection buffer (CisBio 61DB10RDF). 50× compound in DMSO was mixed with 16 nM KRAS-acceptor solution and incubated for 30 minutes at room temperature. After compound pre-incubation with KRAS, the RAF1 donor solution was added to the KRAS-acceptor solution and incubated for 1 hour at room temperature. The fluorescence signal emitted was monitored at 665 nm and 615 nm using an Envision multimode plate reader. The HTRF ratio (665/615) was calculated and normalized to 0% inhibition in the absence of compound and 100% inhibition in the presence of untagged RAF1 protein. […]

wtKRAS/RAF1 = target: T3, wtKRAS/RAF1 (Homo sapiens, UniProt P01116); assay: Protein-protein interaction (PPI) HTRF assay w.t.KRAS/RAF1
T3 construct: KRAS (1-169) proteins were expressed in E. coli at 18° C; His6-MBP (N, cleaved yes); made in house; host or cells: E. coli
T3 sequence (P01116 1-169 isoform P01116-2): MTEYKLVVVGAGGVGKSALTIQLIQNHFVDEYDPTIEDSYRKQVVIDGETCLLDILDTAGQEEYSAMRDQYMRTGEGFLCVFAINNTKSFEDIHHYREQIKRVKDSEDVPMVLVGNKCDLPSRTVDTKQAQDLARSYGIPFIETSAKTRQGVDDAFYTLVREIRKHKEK
Protocol: as §1, §2, §3

wtNRAS/RAF1 = target: T4, wtNRAS/RAF1 (Homo sapiens, UniProt P01111); assay: Protein-protein interaction (PPI) HTRF assay w.t.NRAS/RAF1
T4 construct: (1-169); His6-SUMO (N, cleaved yes); made in house; host or cells: E. coli (printed for the KRAS and RAF1 constructs; not explicitly for NRAS)
T4 sequence (P01111 1-169): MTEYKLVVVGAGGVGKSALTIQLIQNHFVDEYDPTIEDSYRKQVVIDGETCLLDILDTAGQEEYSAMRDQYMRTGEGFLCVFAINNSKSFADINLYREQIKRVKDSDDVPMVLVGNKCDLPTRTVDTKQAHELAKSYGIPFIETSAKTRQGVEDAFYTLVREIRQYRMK
Protocol: as §1, §2, §3

CN(C)C(=O)c1nn2c(c1Cl)CN(c1nc(OC[C@@]34CCCN3C[C@H](F)C4)nc3c1CN(C)[C@@]1(CCc4ccccc41)C3)CCC2 [Compound 53, 3-chloro-5-[(7S)-2-[[(2R,8S)-2-fluoro-1,2,3,5,6,7-hexahydropyrrolizin-8-yl]methoxy]-6-methyl-spiro[5,8-dihydropyrido[4,3-d]pyrimidine-7,1′-indane]-4-yl]-N,N-dimethyl-4,6,7,8-tetrahydropyrazolo[1,5-a][1,4]diazepine-2-carboxamide]
IC50 (KRAS G12D/RAF1): 10 to 100 µM
IC50 (KRAS G12V/RAF1): 10 to 100 µM
IC50 (wtKRAS/RAF1): 10 to 100 µM
IC50 (wtNRAS/RAF1): > 100 µM

CN(C)C(=O)c1nn2c(c1Cl)CN(c1nc(OC[C@@]34CCCN3C[C@H](F)C4)nc3c1CN(C)[C@@]1(CCCc4ccccc41)C3)CCC2 [Compound 64, 3-chloro-5-[(7S)-2-[[(2R,8S)-2-fluoro-1,2,3,5,6,7-hexahydropyrrolizin-8-yl]methoxy]-6-methyl-spiro[5,8-dihydropyrido[4,3-d]pyrimidine-7,1′-tetralin]-4-yl]-N,N-dimethyl-4,6,7,8-tetrahydropyrazolo[1,5-a][1,4]diazepine-2-carboxamide]
IC50 (KRAS G12D/RAF1): 10 to 100 µM
IC50 (KRAS G12V/RAF1): 10 to 100 µM
IC50 (wtNRAS/RAF1): > 100 µM

C#Cc1c(C(=O)N(C)C)nn2c1CN(c1nc(OC[C@@]34CCCN3C[C@H](F)C4)nc3c1CN(C)[C@@]1(CCCc4ccccc41)C3)CCC2 [Compound 81, 3-ethynyl-5-[(7S)-2-[[(2R,8S)-2-fluoro-1,2,3,5,6,7-hexahydropyrrolizin-8-yl]methoxy]-6-methyl-spiro[5,8-dihydropyrido[4,3-d]pyrimidine-7,1′-tetralin]-4-yl]-N,N-dimethyl-4,6,7,8-tetrahydropyrazolo[1,5-a][1,4]diazepine-2-carboxamide]
IC50 (KRAS G12D/RAF1): 10 to 100 µM
IC50 (KRAS G12V/RAF1): 10 to 100 µM
IC50 (wtKRAS/RAF1): 10 to 100 µM
IC50 (wtNRAS/RAF1): > 100 µM

Cc1nnc(-c2nn3c(c2Cl)CN(c2nc(OC[C@@]45CCCN4C[C@H](F)C5)nc4c2CN(C)[C@@]2(CCCc5ccccc52)C4)CCC3)n1C [Compound 90, (7S)-4-[3-chloro-2-(4,5-dimethyl-1,2,4-triazol-3-yl)-4,6,7,8-tetrahydropyrazolo[1,5-a][1,4]diazepin-5-yl]-2-[[(2R,8S)-2-fluoro-1,2,3,5,6,7-hexahydropyrrolizin-8-yl]methoxy]-6-methyl-spiro[5,8-dihydropyrido[4,3-d]pyrimidine-7,1′-tetralin]]
IC50 (KRAS G12D/RAF1): 10 to 100 µM
IC50 (KRAS G12V/RAF1): 10 to 100 µM
IC50 (wtKRAS/RAF1): > 100 µM
IC50 (wtNRAS/RAF1): > 100 µM

CN(C)C(=O)c1nn2c(c1Cl)CN(c1nc(OC[C@@]34CCCN3C[C@H](F)C4)nc3c1CN(C)[C@@]1(CCc4cccc(O)c41)C3)CCC2 [Compound 96, 3-chloro-5-[(7S)-2-[[(2R,8S)-2-fluoro-1,2,3,5,6,7-hexahydropyrrolizin-8-yl]methoxy]-7′-hydroxy-6-methyl-spiro[5,8-dihydropyrido[4,3-d]pyrimidine-7,1′-indane]-4-yl]-N,N-dimethyl-4,6,7,8-tetrahydropyrazolo[1,5-a][1,4]diazepine-2-carboxamide]
IC50 (KRAS G12D/RAF1): 10 to 100 µM
IC50 (KRAS G12V/RAF1): 10 to 100 µM
IC50 (wtKRAS/RAF1): > 100 µM
IC50 (wtNRAS/RAF1): > 100 µM

CN(C)CC1(COc2nc3c(c(N4CCCn5nc(C(=O)N(C)C)c(Cl)c5C4)n2)CN(C)[C@@]2(CCCc4ccccc42)C3)CC1(F)F (stereo partly drawn) [Compound 97, 3-chloro-5-[(7S)-2-[[1-[(dimethylamino)methyl]-2,2-difluoro-cyclopropyl]methoxy]-6-methyl-spiro[5,8-dihydropyrido[4,3-d]pyrimidine-7,1′-tetralin]-4-yl]-N,N-dimethyl-4,6,7,8-tetrahydropyrazolo[1,5-a][1,4]diazepine-2-carboxamide]
IC50 (KRAS G12D/RAF1): > 100 µM

CN1Cc2c(nc(OC[C@@]34CCCN3C[C@H](F)C4)nc2N2CCCn3nc(-c4nnnn4C)c(Cl)c3C2)C[C@]12CCCc1ccccc12 [Compound 99, (7S)-4-[3-chloro-2-(1-methyltetrazol-5-yl)-4,6,7,8-tetrahydropyrazolo[1,5-a][1,4]diazepin-5-yl]-2-[[(2R,8S)-2-fluoro-1,2,3,5,6,7-hexahydropyrrolizin-8-yl]methoxy]-6-methyl-spiro[5,8-dihydropyrido[4,3-d]pyrimidine-7,1′-tetralin]]
IC50 (KRAS G12D/RAF1): > 100 µM
